Measured values taken from patent US20160045513A1, “ISOXAZOLE COMPOUND FOR THE TREATMENT OF CANCER” (Novartis AG, priority 2007, published 2016).

Columns and labels:
BN472 xenograft = experiment: antitumor effect in the rat breast cancer model BN-472; format: in vivo; details: for T/C (%) / ΔTumor volume (mm^3): qw, i.v.; for ΔTumor volume (mm^3): mean ±SEM
Method: The transplantable rat breast cancer tumor BN472 is serially passaged as fragments in female syngeneic Brown Norway rats. The injection site is orthotopically in the mammary fat pad. Treatment with AUY922 is initiated when the average tumor volume reaches approximately 100 mm^3. Tumor growth is monitored at regular intervals. The xenograft tumor sizes are measured manually with calipers and the tumor volume is estimated using the formula: (W×L^2×π/6), where width (W) and height (H) are the two largest diameters. Results are presented as mean ±SEM. Tumor data were analyzed by ANOVA with post hoc Dunnet's test for comparison of treatment versus control group. As a measure of efficacy the % T/C value is calculated at the end of the experiment according to: (Δtumor volumetreated/Δtumor volumecontrol)*100 where Δtumor volumes represent the mean tumor volume on the evaluation day minus the mean tumor volume at the start of the experiment. The antitumor effect of AUY922 is evaluated in the BN472 xenograft model. Each group consists of seven tumor bearing animals. At the end of the study, the tumor sizes in the treatment groups are compared to those of the vehicle treated groups and the effect is expressed as %T/C.

BT-474 xenograft = experiment: antitumor effect in the human breast cancer model BT-474; format: in vivo, mouse; details: for T/C (%) / ΔTumor volume (mm^3): qw, i.v., 21 days treatment; for ΔTumor volume (mm^3): mean ±SEM
Method: The estrogen receptor positive cell line BT-474 was initially isolated from a human breast ductal carcinoma established from a solid, invasive ductal carcinoma of the breast obtained from a person (ATCC number HTB-20). The cells are grown in DMEM high glucose (4.5 g/l) supplemented with 10% FCS, […] and 1% sodium pyruvate. In preparation for cell inoculation, each mouse is subcutaneously implanted on the upper dorsal side with a 17β-Estradiol pellet (25 μg/day; 90 day release) using a trocar needle. BT-474 cells (5×10̂6) are injected in 200 μl Matrigel:HBSS (1:1 vol) (BD MatrigelTM Basement Membrane Matrix). The injection site is subcutaneously in the right flank. […] Tumor growth is monitored at regular intervals. The xenograft tumor sizes are measured manually with calipers and the tumor volume is estimated using the formula: (W×L×H×π/6), where width (W), height (H) and length (L) are the three largest diameters. Results are presented as mean ±SEM. Tumor data are analyzed by ANOVA with post hoc Dunnet's test for comparison of treatment versus control group. As a measure of efficacy the % T/C value is calculated at the end of the experiment according to: (Δtumor volumetreated/Δtumor volumecontrol)*100 where Δtumor volumes represent the mean tumor volume on the evaluation day minus the mean tumor volume at the start of the experiment. The antitumor effect of AUY922 is evaluated in the BT-474 xenograft model. In this study, the treatment period is 21 days. Each group consists of eight tumor bearing animals. At the end of the study, the tumor sizes in the treatment groups are compared to those of the vehicle treated groups and the effect is expressed as % T/C.

CCNC(=O)c1noc(-c2cc(C(C)C)c(O)cc2O)c1-c1ccc(CN2CCOCC2)cc1 [AUY922, 5-(2,4-Dihydroxy-5-isopropyl-phenyl)-4-(4-morpholin-4-ylmethyl-phenyl)-isoxazole-3-carboxylic acid ethylamide] was tested. Which “T/C (%)” value (BN472 xenograft; 25 mg/kg) did it give?
Its value is 78%.

And the “ΔTumor volume (mm^3)” value (BN472 xenograft; 25 mg/kg)?
The value was 4357 ± 1338 mm^3.

What about the “T/C (%)” value (BN472 xenograft; 50 mg/kg) of the same compound?
Its value is 21%.

And the “ΔTumor volume (mm^3)” value (BN472 xenograft; 50 mg/kg, *P < 0.05)?
Its value is 1148 ± 152* mm^3.

And the “reduction of tumor sizes versus vehicle” value (BN472 xenograft; once per week at 50 mg/kg)?
The value was “Statistically significant reduction of tumor sizes”.

And the “T/C (%)” value (BT-474 xenograft; 8.3 mg/kg)?
Its value is 43%.

And the “ΔTumor volume (mm^3)” value (BT-474 xenograft; 8.3 mg/kg)?
The value was 229 ± 73 mm^3.

What about the “T/C (%)” value (BT-474 xenograft; 17 mg/kg) of the same compound?
Its value is 9%.

And the “ΔTumor volume (mm^3)” value (BT-474 xenograft; 17 mg/kg, *P < 0.05)?
The value was 46 ± 27* mm^3.

What about the “T/C (%)” value (BT-474 xenograft; 25 mg/kg) of the same compound?
The value was 3%.

What about the “ΔTumor volume (mm^3)” value (BT-474 xenograft; 25 mg/kg, *P < 0.05) of the same compound?
The value was 15 ± 23* mm^3.

What about the “reduction of tumor sizes versus vehicle” value (BT-474 xenograft; once per week at 17-25 mg/kg) of the same compound?
The value was “Statistically significant reduction of tumor sizes”.
